Measured values reported in article PMC5601625, “Defining a therapeutic window for kinase inhibitors in leukemia to avoid neutropenia” (Oncotarget, 2017).
“Also recorded” adds a separate entry of the source. Like-named read-outs stand apart in the source and are kept apart here.

Key:
[1] = test system: human peripheral blood neutrophils; test: Human neutrophil viability by propidium iodide exclusion, flow cytometry; settings: for sensitivity of human neutrophils at 1μM: 18 h; for sensitivity of human neutrophils: G-CSF or GM-CSF primed 1 h, treated 18 h, dose range
Method: Figure 3 Assessment of human neutrophil viability in response to kinase inhibitor treatment Human peripheral blood neutrophils from three healthy donors were primed with G-CSF or GM-CSF for 1 hour before addition of selected kinase inhibitors (as shown) or DMSO (control) at concentrations as indicated. Neutrophil viability was assessed after 18 hours of treatment, by propidium iodide exclusion measured by flow cytometry. Mean ± SEM shown.
Donors were 18 years of age or older and had not taken anti-inflammatory medications during the 2 weeks before donating. […] Human neutrophils were then isolated on a three-layer Percoll gradient as described for mouse bone marrow neutrophils as described. […] Neutrophils were resuspended in DMEM/10%FBS, and primed with 10 ng/mL recombinant human G-CSF (Amgen) or 10 ng/mL recombinant human GM-CSF (Leukine, Sargramostim) for 1 h. Compounds or DMSO carrier were added for […]. Viability was assessed by staining neutrophils with propidium iodide and analyzing on a BD Fortessa.

[2] = test system: panel of human leukemia cell lines; test: Cell Titer Glo cell viability assay, 48 h, statements across the whole panel; settings: for cytotoxicity to leukemia cell lines: 12 leukemia cell lines
Method: (§1) The activity of the kinase inhibitor collection against a panel of human leukemia cell lines was determined in cell viability assays run over 48 h using the Cell Titer Glo reagent.
(§2) Figure 1 Effects of kinase inhibition on the proliferation of leukemia cells A. Human leukemia cell lines were treated with duplicate serial dilutions of kinase inhibitors and the effect on cell viability was determined by Cell Titer Glo assay after 48 hours. Data shown represents the mean IC50 of each condition from 2 independent experiments. HL-60 cells were treated with serial dilutions of mTor/PI3K B. and MEK C. inhibitors and the effect on cell viability was determined after 48 hours. Data shown is the mean ± SEM of 3 independent experiments.
(§3) Leukemia and lymphoma cell lines were grown in RPMI containing 10% FCS. […] Cell lines are routinely tested for mycoplasma and genotyped by short tandem repeating (STR) profiling to confirm identity.
(§4) Compounds were obtained from SynMedChem and dissolved at […] in DMSO. Serial 2-fold dilutions of each compound were prepared in DMSO using a liquid handling robot (Janus, Perkin Elmer). Each dilution (100nL) was transferred to duplicate tissue culture plates containing 50 μL of media containing 5 × 10^3 cells using a 384 well pin tool. Cells were incubated for 48 h and cell viability was determined using Cell Titer Glow reagents as described by the manufacturer (Promega). Data was acquired using a luminescent plate reader (Envision, Perkin Elmer) and analysed using Activity Base (IDBS, Guilford, UK) and visualised using Spotfire (TIBCO, Palo Alto, CA) as described previously. Each cell line was assayed in independent experiments on at least two occasions. […] Serial 2-fold dilutions of each compound were prepared in media containing 0.2% DMSO and 50 μl of each dilution was added to 10^4 cells in 50 μl of media. Cells were incubated for 48 h and cell viability was determined using Cell Titer Glow assay as described above.

[3] = test system: primary murine bone-marrow neutrophils; test: Live cell imaging viability of primary bone-marrow neutrophils; settings: for effect on mouse neutrophil viability (words): G-CSF- or GM-CSF-primed, inhibitors at 1 μM, over 24 hours; for effect of chemotherapeutics on neutrophil viability: GM-CSF-primed, dose-dependent, Figure 5D
Description: Using a high-throughput live cell imaging approach reported previously [15], we examined the effect of the kinase inhibitors on the viability of bone marrow neutrophils to determine their potential to cause neutropenia (Figure 2). Because G-CSF and GM-CSF are dominant regulators of granulopoiesis and neutrophil survival, and are commonly used in a clinical setting to mobilize hematopoietic stem cells into the blood and increase neutrophil production [27–31], we treated cells with these cytokines immediately prior to drug exposure. The addition of either cytokine prevents constitutive neutrophil apoptosis thereby increasing the window for detection of changes in viability induced by drug treatments.
For all above, data represent mean ± SEM from three independent samples.
Mouse bone marrow neutrophils were prepared as described [15]. Neutrophils were resuspended in phenol red-free DMEM/10% FBS for imaging studies. The purity of neutrophil preparations was routinely 96% ± 4% (Mean ± SD, n = 50) as assessed by cytology following May-Grünwald/Giemsa staining.
Kinase inhibitors were purchased from SYN kinase (Melbourne, Australia) and were used at 1 μM, unless otherwise specified, with dilutions performed in assay buffer containing 0.1% DMSO.
Viability was monitored using 2 μg/mL PI (Sigma). Images were captured every 30-60 min by the Zeiss Axiovert 200M Microscope at 37 °C/10% CO2. Quantitative analysis was performed using a custom-scripted MetaMorph (Molecular Devices) journal suite incorporating the count nuclei function, reconstruction & subtraction functions and Integrated Morphometry Analysis to select and analyze cells of interest.

[4] = test system: primary murine myeloid HPCs (lin-c-Kit+Sca-1- cells); test: Live cell imaging viability of hematopoietic myeloid progenitor cells
Description: (C & D) Dose-dependent effects of common chemotherapeutics on GM-CSF-primed primary murine myeloid HPCs C. or GM-CSF-primed primary murine bone-marrow neutrophils D. as assessed by live cell imaging analysis (concentrations as marked). E. Comparison of G-CSF (red/orange) or GM-CSF (blue) priming of myeloid HPCs before treatment with chemotherapeutics as assessed by live cell imaging (concentrations as marked). […] Mean ± SEM with n = 3 independent samples. * p < 0.05.
For purification of myeloid progenitor cells, bone marrow cells were collected in DMEM/10% FCS. After red cell lysis, cells were stained with biotin-conjugated antibodies against Ter119, Gr-1, Mac-1, B220, CD4, CD8 and IL-7Rα and incubated with streptavidin-microbeads (Miltenyi Biotech). Lineage positive cells were depleted by magnetic separation using MACS LS columns and QuadroMACS^TM separator magnets (Miltenyi Biotech). Hematopoietic myeloid progenitor cells that were propidium iodide (PI) negative, lineage-negative, Sca-1 negative and c-Kit positive, were sorted and collected by flow cytometry on a FACSAria or Diva (BD Biosciences). For imaging studies, cells were resuspended in StemPro-34 SFM (Invitrogen). Cells were cultured in 10 ng/mL human G-CSF (Neupogen, Amgen), 10 ng/mL recombinant mouse GM-CSF or 10 ng/mL recombinant human GM-CSF.
The MetaMorph script is available upon request.

JURKAT = test: Cell Titer Glo cell viability assay, 48 h; assay type: cell-based, human; settings: 48 h, mean of 2 independent experiments, 0 = less than 10 nM, cell line not given, read-out: IC50 of inhibitors on cell lines, m (mean)
Method: as §1
as §2, with “Data shown represents the mean IC50 of each condition from 2 independent experiments.” left out
as §3, §4

EOL-1 = test: Cell Titer Glo cell viability assay, 48 h; assay type: cell-based, human; settings: 48 h, mean of 2 independent experiments, 0 = less than 10 nM, cell line not given, read-out: IC50 of inhibitors on cell lines, m (mean)
Method: as §1
as §2, with “Data shown represents the mean IC50 of each condition from 2 independent experiments.” left out
as §3, §4

MEG-01 = test: Cell Titer Glo cell viability assay, 48 h; assay type: cell-based, human; settings: 48 h, mean of 2 independent experiments, 0 = less than 10 nM, cell line not given, read-out: IC50 of inhibitors on cell lines, m (mean)
Method: as §1
as §2, with “Data shown represents the mean IC50 of each condition from 2 independent experiments.” left out
as §3, §4

THP-1 = test: Cell Titer Glo cell viability assay, 48 h; assay type: cell-based, human; settings: 48 h, mean of 2 independent experiments, 0 = less than 10 nM, cell line not given, read-out: IC50 of inhibitors on cell lines, m (mean)
Method: as §1
as §2, with “Data shown represents the mean IC50 of each condition from 2 independent experiments.” left out
as §3, §4

HL-60 = test: Cell Titer Glo cell viability assay, 48 h; assay type: cell-based, human; settings: 48 h, mean of 2 independent experiments, 0 = less than 10 nM, cell line not given, read-out: IC50 of inhibitors on cell lines, m (mean)
Method: as §1
as §2, with “Data shown represents the mean IC50 of each condition from 2 independent experiments.” left out
as §3, §4

HEL.92.1.7 = test: Cell Titer Glo cell viability assay, 48 h; assay type: cell-based, human; settings: 48 h, mean of 2 independent experiments, 0 = less than 10 nM, cell line not given, read-out: IC50 of inhibitors on cell lines, m (mean)
Method: as §1
as §2, with “Data shown represents the mean IC50 of each condition from 2 independent experiments.” left out
as §3, §4

MV4;11 = test: Cell Titer Glo cell viability assay, 48 h; assay type: cell-based, human; settings: 48 h, mean of 2 independent experiments, 0 = less than 10 nM, cell line not given, read-out: IC50 of inhibitors on cell lines, m (mean)
Method: as §1
as §2, with “Data shown represents the mean IC50 of each condition from 2 independent experiments.” left out
as §3, §4

MOLT4 = test: Cell Titer Glo cell viability assay, 48 h; assay type: cell-based, human; settings: 48 h, mean of 2 independent experiments, 0 = less than 10 nM, cell line not given, read-out: IC50 of inhibitors on cell lines, m (mean)
Method: as §1
as §2, with “Data shown represents the mean IC50 of each condition from 2 independent experiments.” left out
as §3, §4

U937 = test: Cell Titer Glo cell viability assay, 48 h; assay type: cell-based, human; settings: 48 h, mean of 2 independent experiments, 0 = less than 10 nM, cell line not given, read-out: IC50 of inhibitors on cell lines, m (mean)
Method: as §1
as §2, with “Data shown represents the mean IC50 of each condition from 2 independent experiments.” left out
as §3, §4

K562 = test: Cell Titer Glo cell viability assay, 48 h; assay type: cell-based, human; settings: 48 h, mean of 2 independent experiments, 0 = less than 10 nM, cell line not given, read-out: IC50 of inhibitors on cell lines, m (mean)
Method: as §1
as §2, with “Data shown represents the mean IC50 of each condition from 2 independent experiments.” left out
as §3, §4

OCI-AML3 = test: Cell Titer Glo cell viability assay, 48 h; assay type: cell-based, human; settings: 48 h, mean of 2 independent experiments, 0 = less than 10 nM, cell line not given, read-out: IC50 of inhibitors on cell lines, m (mean)
Method: as §1
as §2, with “Data shown represents the mean IC50 of each condition from 2 independent experiments.” left out
as §3, §4

KU-812 = test: Cell Titer Glo cell viability assay, 48 h; assay type: cell-based, human; settings: 48 h, mean of 2 independent experiments, 0 = less than 10 nM, cell line not given, read-out: IC50 of inhibitors on cell lines, m (mean)
Method: as §1
as §2, with “Data shown represents the mean IC50 of each condition from 2 independent experiments.” left out
as §3, §4

[5] = cited from earlier work
[6] = Homo sapiens, read-out: IC50 across most of the cell lines examined

## CC[C@@H]1C(=O)N(C)c2cnc(Nc3ccc(C(=O)NC4CCN(C)CC4)cc3OC)nc2N1C1CCCC1 [(R)-BI-2536]
[1]
  sensitivity of human neutrophils at 1μM: not sensitive
  sensitivity of human neutrophils: sensitive
[2]
  cytotoxicity to leukemia cell lines: potently cytotoxic to all lines examined
[2]; Homo sapiens, read-out: IC50 across all cell lines examined
  IC50: < 300 nM
[2]; [6]
  IC50: ≤ 10 nM

## NC(=O)Nc1cc(-c2cccc(F)c2)sc1C(=O)N[C@H]1CCCNC1 [AZD7762]
[1]
  sensitivity of human neutrophils at 1μM: not sensitive
  sensitivity of human neutrophils: sensitive
[2]
  cytotoxicity to leukemia cell lines: potently cytotoxic to all lines examined
[2]; [6]
  IC50: ≤ 10 nM

## Cn1c(=O)n(-c2ccc(C(C)(C)C#N)cc2)c2c3cc(-c4cnc5ccccc5c4)ccc3ncc21 [BEZ-235]
[1]
  sensitivity of human neutrophils at 1μM: not sensitive
  sensitivity of human neutrophils: sensitive
[2]
  cytotoxicity to leukemia cell lines: potently cytotoxic to all lines examined
[2]; [6]
  IC50: ≤ 10 nM
[3]
  effect on mouse neutrophil viability (words): minimal impact

## Cc1ccc([N+](=O)[O-])cc1S(=O)(=O)N(C)/N=C/c1cnc2ccc(Br)cn12 [PIK-75]
[4]; G-CSF- or GM-CSF-primed, 1 μM, over 24 hours
  effect of kinase inhibitors on HPC viability: active against both G-CSF- and GM-CSF-treated HPC
[1]
  sensitivity of human neutrophils: sensitive
[2]
  cytotoxicity to leukemia cell lines: potently cytotoxic to all lines examined
[2]; read-out: IC50 across most of the cell lines examined, Cell Titer Glo, most of 12 leukemia lines
  IC50: ≤ 10 nM
[3]; read-out: EC50 neutrophil viability, Mcl-1+/-, Mcl-1+/- neutrophils, 12 hour time-point
  EC50: 57 nM
[3]; read-out: EC50 neutrophil viability, wild-type, WT neutrophils, 12 hour time-point
  EC50: 228 nM
JURKAT
  IC50: 90 nM
EOL-1
  IC50: 40 nM
MEG-01
  IC50: 290 nM
THP-1
  IC50: 100 nM
HL-60
  IC50: 60 nM
HEL.92.1.7
  IC50: 80 nM
MV4;11
  IC50: 10 nM
MOLT4
  IC50: 130 nM
U937
  IC50: 60 nM
K562
  IC50: 330 nM
OCI-AML3
  IC50: 100 nM
KU-812
  IC50: 140 nM

## CC(C)(C)c1cnc(CSc2cnc(NC(=O)C3CCNCC3)s2)o1 [SNS-032]
[1]
  sensitivity of human neutrophils: sensitive
[5]; patients with chronic lymphocytic leukemia and multiple myeloma
  dose-limiting side-effect in patients: neutropenia as the dose-limiting side-effect
[3]
  effect on mouse neutrophil viability (words): induced rapid cell death; also recorded: significant impact on neutrophil viability
[3]; Mus musculus, Neutrophil, 12 h, read-out: EC50 neutrophil viability, Bak-/- Bax deficient
  EC50: > 1000 nM
[3]; Mus musculus, Neutrophil, 12 h, read-out: EC50 neutrophil viability, Mcl-1+/-
  EC50: 80 nM
[3]; Mus musculus, Neutrophil, 12 h, read-out: EC50 neutrophil viability, wild-type
  EC50: 182 nM
[3]; Mus musculus, Neutrophil, read-out: EC50 neutrophil viability, G-CSF primed
  EC50: 194 nM
[3]; Mus musculus, Neutrophil, read-out: EC50 neutrophil viability, GM-CSF primed
  EC50: 218 nM
JURKAT; Homo sapiens
  IC50: 160 nM
EOL-1; Homo sapiens, EOL1
  IC50: 90 nM
MEG-01; Homo sapiens
  IC50: 580 nM
THP-1; Homo sapiens
  IC50: 140 nM
HL-60; Homo sapiens
  IC50: 100 nM
HEL.92.1.7; Homo sapiens
  IC50: 1330 nM
MV4;11; Homo sapiens
  IC50: 150 nM
MOLT4; Homo sapiens, MOLT-4
  IC50: 290 nM
U937; Homo sapiens, U-937
  IC50: 70 nM
K562; Homo sapiens
  IC50: 720 nM
OCI-AML3; Homo sapiens, OCI-AML-3
  IC50: 190 nM
KU-812; Homo sapiens, KU812
  IC50: 610 nM

## N.N.O=C([O-])C1(C(=O)[O-])CCC1.[Pt+2] [carboplatin]
[4]; GM-CSF-primed, dose-dependent, Figure 5C
  effect of chemotherapeutics on HPC viability: no effects
[5]
  neutropenia in the clinic: induce neutropenia in the clinic
[3]
  effect of chemotherapeutics on neutrophil viability: no effects

## CC(=O)O[C@@]12CO[C@@H]1C[C@H](O)[C@@]1(C)C(=O)[C@H](O)C3=C(C)[C@@H](OC(=O)[C@H](O)[C@@H](NC(=O)OC(C)(C)C)c4ccccc4)C[C@@](O)([C@@H](OC(=O)c4ccccc4)[C@H]21)C3(C)C [docetaxel]
[4]
  effect of chemotherapeutics on HPC viability: no effects
[5]
  neutropenia in the clinic: induce neutropenia in the clinic
[3]
  effect of chemotherapeutics on neutrophil viability: no effects
